Reference: paper PMC11167517, “Synthesis, computational docking and molecular dynamics studies of a new class of spiroquinoxalinopyrrolidine embedded chromanone hybrids as potent anti-cholinesterase agents” (RSC Advances, 2024)

Experiments:
[1] = target: acetylcholinesterase (AChE) (Electrophorus electricus, UniProt O42275); experiment: In vitro acetylcholinesterase inhibitory assay (DTNB/acetylthiocholine iodide, absorbance at 412 nm); assay type: biochemical; conditions: IC50(BChE)/IC50(AChE)
Chain of acetylcholinesterase (AChE) (O42275 24-633): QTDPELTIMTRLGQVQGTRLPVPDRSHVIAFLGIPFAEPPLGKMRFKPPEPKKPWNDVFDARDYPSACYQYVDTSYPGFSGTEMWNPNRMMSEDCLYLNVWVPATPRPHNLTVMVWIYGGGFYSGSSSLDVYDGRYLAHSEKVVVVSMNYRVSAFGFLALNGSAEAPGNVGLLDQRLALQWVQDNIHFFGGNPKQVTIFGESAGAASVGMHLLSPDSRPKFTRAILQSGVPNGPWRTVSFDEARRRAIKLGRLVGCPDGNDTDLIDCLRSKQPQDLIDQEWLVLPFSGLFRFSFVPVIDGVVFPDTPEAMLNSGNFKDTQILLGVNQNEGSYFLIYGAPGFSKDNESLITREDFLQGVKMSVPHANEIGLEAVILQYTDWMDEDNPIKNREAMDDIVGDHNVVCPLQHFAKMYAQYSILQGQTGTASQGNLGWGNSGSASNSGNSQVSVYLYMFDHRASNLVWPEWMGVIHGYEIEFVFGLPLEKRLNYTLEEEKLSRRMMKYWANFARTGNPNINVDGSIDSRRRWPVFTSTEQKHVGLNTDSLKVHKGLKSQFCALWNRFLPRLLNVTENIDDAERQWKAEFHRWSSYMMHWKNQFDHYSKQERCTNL
Method: (§1) Acetylcholine is an important neurotransmitter involved in memory and cognition.[34] The enzymes AChE and BChE act on these neurotransmitters and degrade them to attenuate acetylcholine-mediated effects.[35] In neurodegenerative diseases, a reduced acetyl choline level is detrimental, leading to impaired memory and cognition.[36] […]
(§2) of test samples and 20 µL of 0.09 units/mL acetylcholinesterase enzyme. After 15 min. of incubation at 25 °C, 10 µL of 10 mM 5,50 -dithiobis-2-nitrobenzoic acid (DTNB) was added into each well followed by 10 µL of 14 mM acetylthiocholine iodide. Thirty minutes after the initiation of enzymatic reaction, absorbance of the colored end-product was measured using BioTek Power Wave X 340 Microplate Spectrophotometer at 412 nm. For butyrylcholinesterase (BuChE) inhibitory assay, the same procedure described above was followed, except for the use of enzyme and substrate, instead of which, butyrylcholine esterase from equine serum and S-butyrylthiocholine chloride were used. IC50 value was calculated by standard protocol Each test was conducted in triplicate. Absorbance of the test samples was corrected by subtracting the absorbance of their respective blank. Percentage inhibition was calculated using […]
(§3) Absorbance of control Absorbance of Sample
(§4) Percentage of inhibition = X 100
(§5) Selectivity for AChE defined as IC 50(BChE)/IC50(AChE).
(§6) Selectivity for BChE defined as IC 50(AChE)/IC50(BChE). […]

[2] = target: T1, butyrylcholine esterase from equine serum (BChE) (Equus caballus, UniProt P81908); experiment: biochemical; conditions: for BChE selectivity: IC50(AChE)/IC50(BChE); for IC50: in vitro, triplicate, read-out: BChE inhibition IC50 μM (±SD)
T1 construct: esterase from equine serum; from tissue; host or cells: equine serum
T1 sequence (P81908 whole entry): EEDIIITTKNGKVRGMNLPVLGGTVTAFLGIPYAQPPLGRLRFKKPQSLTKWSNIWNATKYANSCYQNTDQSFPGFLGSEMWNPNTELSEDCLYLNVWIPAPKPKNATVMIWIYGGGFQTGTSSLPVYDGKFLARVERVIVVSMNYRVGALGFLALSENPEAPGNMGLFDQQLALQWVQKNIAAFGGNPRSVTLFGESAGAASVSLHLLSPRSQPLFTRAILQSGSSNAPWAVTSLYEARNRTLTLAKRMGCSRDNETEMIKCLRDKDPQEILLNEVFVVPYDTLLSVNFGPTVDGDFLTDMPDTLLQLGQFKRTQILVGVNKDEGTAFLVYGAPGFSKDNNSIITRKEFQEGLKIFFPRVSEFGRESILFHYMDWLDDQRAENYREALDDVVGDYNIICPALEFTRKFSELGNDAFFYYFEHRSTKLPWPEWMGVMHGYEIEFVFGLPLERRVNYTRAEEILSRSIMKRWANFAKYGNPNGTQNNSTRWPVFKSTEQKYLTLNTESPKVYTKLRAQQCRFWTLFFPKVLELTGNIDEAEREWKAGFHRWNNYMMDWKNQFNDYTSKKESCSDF
Method: as §1, §2, §3, §4, §5, §6

Row | Structure (SMILES) | AChE selectivity [1] | BChE selectivity [2] | IC50 [2]
1 | Cc1ccc([C@@H]2[C@@H](Cc3ccccc3)NC3(c4ccccc4-c4nc5ccccc5nc43)[C@]23COc2ccccc2C3=O)cc1 (stereo partly drawn) [Compound 5g] | 1.38 | 0.72 | 29.8 ± 0.12 µM
2 | COc1cccc([C@@H]2[C@@H](Cc3ccccc3)NC3(c4ccccc4-c4nc5ccccc5nc43)[C@]23COc2ccccc2C3=O)c1 (stereo partly drawn) [Compound 5h] | 1.25 | 0.80 | 30.15 ± 0.1 µM
3 | O=C1c2ccccc2OCC12C(c1ccccc1Cl)C(Cc1ccccc1)NC21c2ccccc2-c2nc3ccccc3nc21 (stereo not drawn) [Compound 5c, 5-Benzyl-4-(2-chlorophenyl)-2-spiro[2,6′′]indenoquinoxalino-3-spiro[3,3′]-chromanonopyrrolidine] | 4.92 | 0.20 | 22.16 ± 0.14 µM
4 | O=C1c2ccccc2OC[C@@]12[C@H](c1ccc(F)cc1)[C@@H](Cc1ccccc1)NC21c2ccccc2-c2nc3ccccc3nc21 (stereo partly drawn) [Compound 5f] | 5.67 | 0.18 | 18.14 ± 0.06 µM
5 | O=C1c2ccccc2OC[C@@]12[C@H](c1cccc([N+](=O)[O-])c1)[C@@H](Cc1ccccc1)NC21c2ccccc2-c2nc3ccccc3nc21 (stereo partly drawn) [Compound 5j] | 1.93 | 0.52 | 20.16 ± 0.2 µM
6 | O=C1c2ccccc2OC[C@@]12[C@H](c1ccc(Br)cc1)[C@@H](Cc1ccccc1)NC21c2ccccc2-c2nc3ccccc3nc21 (stereo partly drawn) [Compound 5b] | 1.32 | 0.76 | 24.12 ± 0.16 µM
7 | COc1ccc([C@@H]2[C@@H](Cc3ccccc3)NC3(c4ccccc4-c4nc5ccccc5nc43)[C@]23COc2ccccc2C3=O)cc1 (stereo partly drawn) [Compound 5i] | 1.29 | 0.77 | 29.18 ± 0.12 µM
8 | O=C1c2ccccc2OC[C@@]12[C@H](c1ccc(Cl)cc1)[C@@H](Cc1ccccc1)NC21c2ccccc2-c2nc3ccccc3nc21 (stereo partly drawn) [Compound 5d] | 2.72 | 0.37 | 21.02 ± 0.18 µM
9 | O=C1c2ccccc2OC[C@@]12[C@H](c1ccccc1)[C@@H](Cc1ccccc1)NC21c2ccccc2-c2nc3ccccc3nc21 (stereo partly drawn) [Compound 5a] | 1.27 | 0.79 | 28.12 ± 0.25 µM
10 | O=C1c2ccccc2OC[C@@]12[C@H](c1ccccc1F)[C@@H](Cc1ccccc1)NC21c2ccccc2-c2nc3ccccc3nc21 (stereo partly drawn) [Compound 5e] | 3.83 | 0.26 | 20.2 ± 0.24 µM
